PubChem BioAssay AID493003 (Sanford-Burnham Center for Chemical Genomics, 2010)
pIC50: −log10 of the molar value. Calls of active or inactive are those of the source. The rule behind the calls is not given here.

Test system: S. cerevisiae tim10-1 mutant growth, luminescence
Test: growth inhibitors of tim10-1 mutant yeast, dose response, luminescence, S. cerevisiae, uHTS hits (AID 493003);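 note: yeast growth measured after about 22 hours at 25 °C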

| Structure (SMILES) | pIC50 | IC50 |
| --- | --- | --- |
| COc1cccc(/C=C2\N=C(C3CCCCC3)OC2=O)c1OC | 4.44 |  |
| C=CCN(C(=O)c1cccc(S(=O)(=O)N2CCN(C)CC2)c1)c1nc(-c2ccccc2)cs1 | 4.33 |  |
| C/C(=N\NC(=O)c1cc(-c2cccs2)nc2ccccc12)c1ccccn1 | 4.54 |  |
| Cc1ccc(NC(=S)Nc2ccc(Cl)c(Cl)c2)c(OC(F)F)c1 | 4.85 |  |
| Cc1cccc(/C(N)=N/OC(=O)COc2ccc(Cl)cc2)c1 | 4.32 |  |
| O=C1C2C3C=CC(CO)(O3)C2C(=O)N1c1ccccc1-c1ccccc1 (configuration not stated) | 5.31 |  |
| O=C(OCn1ncc(Br)c(Br)c1=O)c1ccc(F)cc1 | 5.48 |  |
| C/C(=N\NC(=S)Nc1cccc(C)c1)c1cc2ccccc2o1 | 4.32 |  |
| CCOC(=O)c1c(-c2ccccc2)csc1NC(=S)NC | 4.35 |  |
| C/C(=N\N=c1/sc2ccccc2n1C)c1ccccn1 | 4.34 |  |
| CC/C(=N\NC(=S)Nc1cc(C)ccc1C)c1ccc(OC(F)F)cc1 | 4.46 |  |
| COc1ccccc1C(CCNCc1ccccc1)c1ccc(OC(C)C)cc1 (configuration not stated) | 4.70 |  |
| N#C/C(=C\c1c[nH]c2ccc(Br)cc12)c1ccccn1 | 4.48 |  |
| C/C(=N\O)c1cc(Cl)cc(Cl)c1O | 4.82 |  |
| O=C(CCNc1ccc(Cc2ccncc2)cc1)c1cccc([N+](=O)[O-])c1 | 4.31 |  |
| Cn1nc(-c2ccccc2)cc1NC(=O)Nc1ccc(C(C)(C)C)cc1 | 4.69 |  |
| O=c1cc(-c2ccc(C3CCCCC3)cc2)[nH][nH]1 | 4.53 |  |
| CCC(=NCc1ccccc1)c1c(C(F)(F)F)[nH]n(-c2nc3ccccc3s2)c1=O |  | > 100 µM (inactive) |
| O=Cc1c[nH]c2cccc(OCc3ccccc3)c12 | 4.56 |  |
| CC(C)n1c(-c2ccco2)csc1=Nc1cccnc1 | 4.37 |  |
| N/C(=N\OC(=O)CCCc1ccccc1)c1ccccc1 | 4.70 |  |
| COc1ccc(OCC(=O)Nc2ccc(S(=O)(=O)N3CCCCC3)cc2)cc1 | 4.44 |  |
| CCn1nccc1C(=O)Nc1ccc(Cl)c(Cl)c1 | 4.61 |  |
| S=C(NCCCc1ccccc1)Nc1ccc(Cl)cc1 | 4.94 |  |

| Structure (SMILES) | pIC50 | IC50 |
| --- | --- | --- |
| COc1cc(Br)cc(/C=C/c2ccc3cccc(O)c3n2)c1O | 4.33 |  |
| COc1ccc(N2CCN(C(=O)Nc3cccc(C(F)(F)F)c3)CC2)cc1 | 4.54 |  |
| Cc1ccc(/C(N)=N/OC(=O)c2ccc3c(c2)OCO3)cc1 | 5.03 |  |
| O=C1CC(Sc2nnnn2-c2ccccc2)C(=O)N1c1cccc(Cl)c1 (configuration not stated) | 5.04 |  |
| COc1ccc(NS(=O)(=O)c2ccc3oc4ccccc4c3c2)cn1 | 4.55 |  |
| Fc1cccc(-c2cc3nc4c(c(NCc5ccco5)n3n2)CCCC4)c1 | 4.47 |  |
| O=C(Nc1ccon1)c1cc2c(s1)CCCCCC2 | 4.41 |  |
| CSc1ccccc1NC(=O)C1CC(c2c(F)cccc2Cl)=NO1 (configuration not stated) | 4.59 |  |
| Cc1ccc(OCC(=O)O/N=C(\N)Cc2ccc(Cl)cc2)cc1 | 5.04 |  |
| CCc1ccc(NC(=S)N(Cc2ccccc2)Cc2ccccn2)cc1 | 4.42 |  |
| O=C(CN1CCN(S(=O)(=O)c2ccc(F)cc2)CC1)Nc1ccc(Cl)c(C(F)(F)F)c1 | 4.73 |  |
| C=CCNc1nc(-c2ccccn2)nnc1-c1ccccc1 | 4.53 |  |
| O=c1c2ccccc2nc(/C=C/c2ccc([N+](=O)[O-])o2)n1CCCO | 5.34 |  |
| CCOC(=O)c1ccc(NC(=O)c2cccc3c2C(=O)N(CC2CCCO2)C3)cc1 (configuration not stated) | 4.26 |  |
| Cc1nc2scc(C)n2c(=O)c1S(=O)(=O)N1CCN(c2cccc(C(F)(F)F)c2)CC1 | 4.33 |  |
| O=C(/C=C/c1ccccc1)CC(O)(c1ccccc1)C(F)(F)C(F)F (configuration not stated) | 4.79 |  |
| OCCN1CCN(C2Cc3cc(Cl)ccc3Sc3ccc(Cl)cc32)CC1 (configuration not stated) (tested in a mixture with another compound) | 4.69 |  |
| Nc1nc(Cl)cc(N2CCC(c3cc(-c4ccc(Cl)cc4)n[nH]3)CC2)n1 | 4.75 |  |
| C/C=C(/C(=C/C)c1ccc(O)cc1)c1ccc(O)cc1 | 4.59 |  |
| COc1ccc(C(=O)O/N=C(\N)c2ccccc2Cl)cc1OC | 4.82 |  |
| COc1ccc(CCNC(=O)NC23CC4CC(CC(C4)C2)C3)cc1 | 4.29 |  |
| CCOC(=O)c1ccc2[nH]c3c(c2c1)CCCC3 | 4.46 |  |
| CC(C)(C)c1ccc(CN2N=Nc3ccccc3S2(=O)=O)cc1 | 5.21 |  |
| Clc1ccc(Cl)c2sc(N3CCCC3)nc12 | 4.45 |  |

| Structure (SMILES) | pIC50 | IC50 |
| --- | --- | --- |
| Cc1nc(Nc2ccc(Cl)cc2Cl)sc1C(=O)Nc1ccccc1 |  | > 100 µM (inactive) |
| O=C1CC(N2CC=C(c3ccccc3)CC2)C(=O)N1c1ccc(F)cc1 (configuration not stated) | 4.83 |  |
| COc1ccc(C)cc1NC(=O)NCCC1=CCCCC1 | 4.49 |  |
| O=C1CC(Sc2nnc(-c3ccccc3)o2)C(=O)N1c1ccccc1 (configuration not stated) | 4.55 |  |
| COc1ccc(-c2oc3ncnc(NCCCN(C)C)c3c2-c2ccc(OC)cc2)cc1 | 4.18 |  |
| COc1ccc(C(=O)O/N=C(\N)Cc2ccc(Cl)c(Cl)c2)cc1OC | 6.12 |  |
| CCCC(=O)Nn1cnc2c(c1=O)C1(CCCC1)Cc1ccccc1-2 | 4.12 |  |
| Oc1ccc(-c2nccc(-c3ccc(F)cc3)n2)cc1 | 4.30 |  |
| COC(=O)c1ccccc1NC(=S)NC(=O)C1CCCCC1 | 4.37 |  |
| CCOC(=O)C1CCN(C2CC(=O)N(c3cccc(Cl)c3)C2=O)CC1 (configuration not stated) | 4.43 |  |
| O=C(C1CCCN(S(=O)(=O)c2cccc3nsnc23)C1)N1CCc2ccccc21 (configuration not stated) | 4.09 |  |
| COc1ccccc1N1C(=O)CC(Sc2n[nH]c(-c3cccc(C)c3)n2)C1=O (configuration not stated) | 5.11 |  |
| Cc1nn2c(c1-c1ccc(Cl)cc1)N=C(c1ccco1)CC2c1ccccc1 (configuration not stated) | 4.63 |  |
| CCCCCCC(=O)N(O)C1CC(=O)N(c2ccc(C)cc2)C1=O (configuration not stated) | 4.91 |  |
| N/C(=N\OC(=O)c1cccc2ccccc12)c1ccncc1 | 4.39 |  |
| COc1cc2c(cc1OC)CN(C(=O)c1ccc(-c3ccccc3)cc1)CC2 | 4.33 |  |
| C/C(=N\NC(=S)NCc1ccccc1)c1ccc(Cl)s1 | 4.79 |  |
| COc1ccc(-c2cc(C3CC3)nc3sc(C#N)c(N)c23)cc1 | 4.90 |  |
| N/C(Cc1ccc(Cl)cc1Cl)=N\OC(=O)Cc1ccc(Cl)cc1 | 5.85 |  |
| Cc1cc(N2C3CCC2CC(O)(c2ccc(F)cc2)C3)nc(-c2ccccc2)n1 (configuration not stated) | 4.60 |  |
| O=C(CN1CCN(S(=O)(=O)c2ccc(Br)cc2)CC1)N/N=C/c1ccc(Br)s1 | 4.37 |  |
| COc1ccc2oc(=O)c(-c3csc(Nc4cccc(O)c4)n3)cc2c1 | 4.66 |  |
| Cc1cc(C)n2nc(SCc3c(F)cccc3Cl)nc2n1 |  | > 100 µM (inactive) |
| COc1ccc(N2C(=O)CC(Sc3nc4ccccc4s3)C2=O)cc1 (configuration not stated) | 4.49 |  |

| Structure (SMILES) | pIC50 | IC50 |
| --- | --- | --- |
| Fc1ccccc1CNC(=S)Nc1cccc(C(F)(F)F)c1 | 4.98 |  |
| O/N=C(\c1ccc(Cl)cc1Cl)c1ncc(C(F)(F)F)cc1Cl | 4.71 |  |
| CN(C)CCCN(C(=O)c1ccc(Cl)s1)c1nc2cc3c(cc2s1)OCO3 | 4.53 |  |
| O=C(COc1ccc(Cl)cc1Cl)Nc1ccc(S(=O)(=O)NC2=NCCCCC2)cc1 | 4.61 |  |
| Cn1c2ccccc2c(=O)c2ccc(C#CC3(O)CCCCC3)cc21 | 4.61 |  |
| C=C(C)COc1ccc(-c2[nH]ncc2Oc2ccccc2OC)c(O)c1 |  | > 100 µM (inactive) |
| O=C(/C=C/c1ccccc1)CC(O)(c1ccccc1)C(F)(F)F (configuration not stated) | 4.62 |  |
| COc1ccccc1C(=O)Nc1ccc(S(=O)(=O)N2CCCCC2)cc1 | 4.60 |  |
| N#CC(C#N)=c1ccc2c(c1)NC1(CCCCC1)N=2 | 4.52 |  |
| Cc1ccccc1NC1=NC(=S)N(c2ccccc2)C12CCCCC2 | 4.83 |  |
| Nc1ccc2oc(-c3cccc(Br)c3)nc2c1 | 4.55 |  |
| CCOC(=O)C1CCCN(C2CC(=O)N(c3cccc(C(F)(F)F)c3)C2=O)C1 (configuration not stated) | 4.86 |  |
| CN(c1ccccc1)C1CCCCC1NS(=O)(=O)c1ccc(Cl)cc1 (configuration not stated) | 4.18 |  |
| COc1ccc(OCC(=O)O/N=C(\N)Cc2ccc(Cl)cc2)cc1 | 4.42 |  |
| Cc1ccc(NC(=O)CN2CCC3(O)CCCCC3C2c2ccc3c(c2)OCO3)c(C)c1 (configuration not stated) | 4.22 |  |
| Cc1nn(Cc2ccc(Cl)cc2)c(C)c1NC(=O)c1noc2c1CCCCC2 | 4.63 |  |
| O=C(O/N=C(/c1ccccc1)c1ccncc1)c1ccccc1[N+](=O)[O-] | 4.54 |  |
| CN1CCc2c(C#N)c(N3CCCCC3)nc(NCc3ccccc3)c2C1 | 4.80 |  |
| CCCC(=O)NC(=S)Nc1ccc(Cl)cn1 | 4.52 |  |
| COc1ccccc1C/C(N)=N/OC(=O)COc1ccccc1C | 4.42 |  |
| CCOC(=O)Cc1csc(NC(=O)CSc2ccc(Br)cc2)n1 | 4.42 |  |
| Brc1ccc(-c2cn3c(n2)CCc2ccc4cccnc4c2-3)cc1 |  | > 100 µM (inactive) |
| N/C(=N\OC(=O)CCCOc1ccc(Cl)cc1Cl)c1ccccn1 | 4.47 |  |
| CCOC(=O)c1c(OCC)[nH]c2c1cc(O)c1ccccc12 | 4.75 |  |

| Structure (SMILES) | pIC50 | IC50 |
| --- | --- | --- |
| CCOc1ccc(-n2cc(-c3ccccc3)c3c(=O)[nH]cnc32)cc1 | 4.83 |  |
| O=C(NC(=S)Nc1cccc(C(F)(F)F)c1)c1csnn1 | 4.59 |  |
| Cc1ccc(S(=O)(=O)c2nc(S(C)(=O)=O)sc2N2CCCCC2C)cc1 (configuration not stated) | 5.15 |  |
| O=C(c1cc(COc2ccc(F)cc2Cl)on1)N1CCN(c2cnccn2)CC1 | 4.93 |  |
| CCCN(CC1COc2ccccc2O1)C(=S)Nc1ccc(C)cc1 (configuration not stated) | 4.47 |  |
| N/C(=N\OC(=O)CCCOc1ccccc1)c1cccc([N+](=O)[O-])c1 | 4.27 |  |
| CCOC(=O)c1ccc(NC(=O)CC2OCCN(CC)C2=O)cc1 (configuration not stated) | 5.00 |  |
| Cc1cc(C)cc(NC(=O)c2ccc(Cn3nc(C)c(Cl)c3C)o2)c1 | 4.16 |  |
| NS(=O)(=O)c1ccc(NC(=S)Nc2ccc(Br)c(Cl)c2)cc1 | 4.50 |  |
| CN(C)CCCN(C(=O)c1ccc(S(=O)(=O)N2CCc3ccccc3C2)cc1)c1nc2c(F)cc(F)cc2s1 | 4.45 |  |
| Cn1c2ccccc2c(=O)c2ccc(C#CC3(N)CCCCC3)cc21 | 4.57 |  |
| C=CCc1cccc(CNc2ccc(Br)cc2)c1O | 4.66 |  |
| CCOC(=O)c1sc(-c2ccc(Br)cc2)cc1N | 4.73 |  |
| C[C@H]1C=CC(=O)O[C@H]1c1ccccc1 | 4.68 |  |
| O=C(Nc1cccc(Cl)c1)N1N=CCC1c1ccccc1 (configuration not stated) | 4.53 |  |
| Cc1cc(N(CCO)CCO)ccc1N=Nc1cc(F)ccc1F | 4.58 |  |
| CCOc1cc(/C=C/C(=O)c2ccc(C)cc2)ccc1OCC(=O)N(C)C | 4.66 |  |
| COc1cc(N=c2ssnc2Cl)c(OC)cc1Cl | 4.89 |  |
| O=C(c1ccc2c(c1)OCCO2)N1CCN(c2ncc(C(F)(F)F)cc2Cl)CC1 | 4.16 |  |
| Cc1ccc(C(=O)c2no[n+]([O-])c2C(=O)c2ccc(C)cc2)cc1 | 4.82 |  |
| Cc1cc(NC(=O)C2CC2)ncc1NC(=O)C12CC3CC(CC(C3)C1)C2 |  | > 100 µM (inactive) |
